Counter-ions that a name gives are not always drawn.

The target of one assay is T1, FMS kinase (Homo sapiens, UniProt P07333).
T1 construct: purchased Millipore
T1 sequence (P07333 538-972): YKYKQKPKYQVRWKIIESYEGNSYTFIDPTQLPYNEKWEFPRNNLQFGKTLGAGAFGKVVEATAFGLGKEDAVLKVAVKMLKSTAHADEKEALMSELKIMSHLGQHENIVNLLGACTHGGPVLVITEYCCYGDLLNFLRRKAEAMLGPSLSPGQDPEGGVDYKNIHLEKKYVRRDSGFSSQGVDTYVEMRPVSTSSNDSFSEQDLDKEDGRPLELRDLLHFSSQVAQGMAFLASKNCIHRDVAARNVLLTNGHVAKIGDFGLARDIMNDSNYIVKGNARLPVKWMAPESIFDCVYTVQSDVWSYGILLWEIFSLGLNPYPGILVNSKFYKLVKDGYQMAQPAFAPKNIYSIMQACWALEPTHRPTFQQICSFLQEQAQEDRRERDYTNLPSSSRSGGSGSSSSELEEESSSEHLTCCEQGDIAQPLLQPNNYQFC
The assay is described as follows: FMS kinase assay (pyruvate kinase/lactate dehydrogenase coupled, A340). The note with it: enzymatic assay, ATP 500 μM. It is filed as biochemical. On the procedure: Activity of FMS kinase was determined by following the production of ADP from the FMS kinase reaction with ATP and poly E4Y as substrates through coupling with the pyruvate kinase/lactate dehydrogenase system (e.g., Schindler et al. Science (2000) 289: 1938-1942). In this assay, the oxidation of NADH (thus the decrease at A340 nm) was continuously monitored spectrophometrically. The reaction mixture (100 μl) contained FMS (purchased from Millipore) (10 nM), polyE4Y (1 mg/mL), MgCl2 (10 mM), pyruvate kinase (4 units), lactate dehydrogenase (0.7 units), phosphoenol pyruvate (1 mM), and NADH (0.28 mM) and ATP (500 μM) in 90 mM Tris buffer containing 0.2% octyl-glucoside and 1% DMSO, pH 7.5. Immediately, the inhibition reaction was started by mixing serial diluted test compound with the above reaction mixture. The absorption at 340 nm was monitored continuously for 4 hours at 30° C. on Synergy 2 plate reader. The reaction rate was calculated using the 3 to 4 h time frame. Percent inhibition was obtained by comparison of reaction rate with that of a control (i.e. in the absence of test compound). IC50 values were calculated from a series of percent inhibition values determined at a range of inhibitor concentrations using software routines as implemented in the GraphPad Prism software package.

The next assay relates to EBC-1 cells. Kind of assay: EBC-1 cell proliferation assay (resazurin). Format: cell-based. Particulars: Homo sapiens, 67 h + 5 h resazurin, read-out: EBC1 Proliferation. On the procedure:
EBC-1 cells (catalog #JCRB0820) were obtained from the Japan Health Science Research Resources Bank, Osaka, Japan. Briefly, cells were grown in DMEM supplemented with 10% characterized fetal bovine serum (Invitrogen, Carlsbad, Calif.) at 37° C., 5% CO2, 95% humidity. Cells were allowed to expand until reaching 70-95% confluency at which point they were subcultured or harvested for assay use.
A serial dilution of test compound was dispensed into a 96-well black clear bottom plate (Corning, Corning, N.Y.). For each cell line, five thousand cells were added per well in 200 μL complete growth medium. Plates were incubated for 67 hours at 37° C., 5% CO2, 95% humidity. At the end of the incubation period 40 μL of a 440 μM solution of resazurin (Sigma, St. Louis, Mo.) in PBS was added to each well and incubated for an additional 5 hours at 37° C., 5% CO2, 95% humidity. Plates were read on a Synergy2 reader (Biotek, Winooski, Vt.) using an excitation of 540 nm and an emission of 600 nm. Data was analyzed using Prism software (GraphPad, San Diego, Calif.) to calculate IC50 values.
Background: The colour change of resazurin is a common sign of viable cells or microbes.

The target of assay [1] is T2, c-MET kinase (Seq. ID No. 2) (Homo sapiens, UniProt P08581).
T2 construct: c-MET (c-MET residues: 956-1390, from Invitrogen, catalogue #PV3143, 6 nM); purchased Invitrogen PV3143
The assay is described as follows: c-MET kinase assay (pyruvate kinase/lactate dehydrogenase coupled, A340). It is filed as biochemical. Particulars: enzymatic assay, 0.5 h pre-incubation, ATP 100 μM; read-out: cMET. The protocol:
Activity of c-MET kinase (Seq. ID No. 2) was determined by following the production of ADP from the kinase reaction through coupling with the pyruvate kinase/lactate dehydrogenase system (e.g., Schindler et al. Science 2000, 289, pp. 1938-1942). In this assay, the oxidation of NADH (thus the decrease at A340 nm) was continuously monitored spectrophotometrically. The reaction mixture (100 μl) contained c-MET (c-MET residues: 956-1390, from Invitrogen, catalogue #PV3143, 6 nM), polyE4Y (1 mg/mL), MgCl2 (10 mM), pyruvate kinase (4 units), lactate dehydrogenase (0.7 units), phosphoenol pyruvate (1 mM), and NADH (0.28 mM) in 90 mM Tris buffer containing 0.25 mM DTT, 0.2% octyl-glucoside and 1% DMSO, pH 7.5. Test compounds were incubated with c-MET (Seq. ID No. 2) and other reaction reagents at 22° C. for 0.5 h before ATP (100 μM) was added to start the reaction. The absorption at 340 nm was monitored continuously for 2 hours at 30° C. on Polarstar Optima plate reader (BMG). The reaction rate was calculated using the 1.0 to 2.0 h time frame. Percent inhibition was obtained by comparison of reaction rate with that of a control (i.e., with no test compound). IC50 values were calculated from a series of percent inhibition values determined at a range of inhibitor concentrations using software routines as implemented in the GraphPad Prism software package.

The target of assay [2] is T3, Phospho-MET in MKN-45 cells (Homo sapiens, UniProt P08581).
T3 construct: endogenous in cells; host or cells: MKN-45 (JCRB0254)
Kind of assay: MKN-45 phospho-MET ELISA. It is filed as cell-based. The note with it: 6 h compound, 40 ng/mL HGF 10 min, read-out: MKN-45 pMET. The protocol: MKN-45 cells (catalog #JCRB0254) were obtained from the Japan Health Science Research Resources Bank, Osaka, Japan. Briefly, cells were grown in RPMI 1640 media supplemented with 10% characterized fetal bovine serum (Invitrogen, Carlsbad, Calif.) at 37° C., 5% CO2, 95% humidity. Cells were allowed to expand until reaching 70-95% confluency at which point they were subcultured or harvested for assay use.
Twenty-five thousand cells in RPMI-1640 supplemented with 10% characterized fetal bovine serum (Invitrogen, Carlsbad, Calif.) were added per well in a 96-well black clear bottom plate (Corning, Corning, N.Y.). Cells were then incubated overnight at 37 degrees Celsius, 5% CO2, 95% humidity. Media was then aspirated and cells were washed with PBS. A serial dilution of test compound was dispensed into another 96-well black clear bottom plate (Corning, Corning, N.Y.) containing serum-free RPMI-1640. Compound was added to plates containing cells and incubated for 6 hours at 37 degrees Celsius, 5% CO2, 95% humidity. Cells were stimulated with 40 ng/mL HGF (R&D Systems, Minneapolis, Minn.) for 10 minutes, and then lysed. Phospho-MET in cell lysates was detected using the DuoSet IC Human Phospho-HGF R/c-MET ELISA (R&D Systems, Minneapolis, Minn.). Data was analyzed using Prism software (Graphpad, San Diego, Calif.) to calculate IC50 values.
A general note: In an ELISA, binding on a coated surface is turned into a signal by an enzyme label.

T3 sequence (P08581 25-1390): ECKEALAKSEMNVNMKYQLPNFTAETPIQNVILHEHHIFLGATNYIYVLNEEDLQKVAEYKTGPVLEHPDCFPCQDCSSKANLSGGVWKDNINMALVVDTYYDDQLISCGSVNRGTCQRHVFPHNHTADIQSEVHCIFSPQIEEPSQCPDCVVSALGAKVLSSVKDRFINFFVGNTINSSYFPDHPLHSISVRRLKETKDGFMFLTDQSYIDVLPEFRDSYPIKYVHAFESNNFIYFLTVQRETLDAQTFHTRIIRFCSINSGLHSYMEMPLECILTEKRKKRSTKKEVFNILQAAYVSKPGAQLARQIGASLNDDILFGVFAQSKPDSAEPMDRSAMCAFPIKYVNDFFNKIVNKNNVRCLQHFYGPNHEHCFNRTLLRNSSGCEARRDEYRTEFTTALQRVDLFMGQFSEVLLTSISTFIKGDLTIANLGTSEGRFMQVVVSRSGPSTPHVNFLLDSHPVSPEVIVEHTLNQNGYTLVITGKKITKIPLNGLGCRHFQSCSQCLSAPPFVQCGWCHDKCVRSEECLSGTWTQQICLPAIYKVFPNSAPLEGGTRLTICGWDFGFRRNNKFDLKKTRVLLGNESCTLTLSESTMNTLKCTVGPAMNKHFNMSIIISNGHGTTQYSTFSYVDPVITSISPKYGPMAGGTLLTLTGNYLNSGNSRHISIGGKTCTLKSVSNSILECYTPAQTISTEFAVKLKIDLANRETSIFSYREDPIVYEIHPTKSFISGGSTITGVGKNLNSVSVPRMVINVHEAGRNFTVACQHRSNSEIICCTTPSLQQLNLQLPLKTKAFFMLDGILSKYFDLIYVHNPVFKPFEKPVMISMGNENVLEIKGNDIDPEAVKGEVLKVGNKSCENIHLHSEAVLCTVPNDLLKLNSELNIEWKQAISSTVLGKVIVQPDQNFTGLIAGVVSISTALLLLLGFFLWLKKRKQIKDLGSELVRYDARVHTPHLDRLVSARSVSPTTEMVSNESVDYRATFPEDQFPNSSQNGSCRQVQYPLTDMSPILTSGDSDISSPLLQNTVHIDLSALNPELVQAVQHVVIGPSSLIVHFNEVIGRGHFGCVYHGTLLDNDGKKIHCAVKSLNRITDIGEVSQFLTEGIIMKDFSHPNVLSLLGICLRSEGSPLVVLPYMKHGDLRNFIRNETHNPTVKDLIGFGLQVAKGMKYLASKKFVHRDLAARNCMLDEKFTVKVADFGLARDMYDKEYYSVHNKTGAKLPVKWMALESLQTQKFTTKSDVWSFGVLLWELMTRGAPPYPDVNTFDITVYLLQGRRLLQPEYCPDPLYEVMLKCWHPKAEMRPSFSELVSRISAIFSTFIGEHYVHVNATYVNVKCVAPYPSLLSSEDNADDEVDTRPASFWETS
T2 sequence (P08581 with tags, fused parts or gaps): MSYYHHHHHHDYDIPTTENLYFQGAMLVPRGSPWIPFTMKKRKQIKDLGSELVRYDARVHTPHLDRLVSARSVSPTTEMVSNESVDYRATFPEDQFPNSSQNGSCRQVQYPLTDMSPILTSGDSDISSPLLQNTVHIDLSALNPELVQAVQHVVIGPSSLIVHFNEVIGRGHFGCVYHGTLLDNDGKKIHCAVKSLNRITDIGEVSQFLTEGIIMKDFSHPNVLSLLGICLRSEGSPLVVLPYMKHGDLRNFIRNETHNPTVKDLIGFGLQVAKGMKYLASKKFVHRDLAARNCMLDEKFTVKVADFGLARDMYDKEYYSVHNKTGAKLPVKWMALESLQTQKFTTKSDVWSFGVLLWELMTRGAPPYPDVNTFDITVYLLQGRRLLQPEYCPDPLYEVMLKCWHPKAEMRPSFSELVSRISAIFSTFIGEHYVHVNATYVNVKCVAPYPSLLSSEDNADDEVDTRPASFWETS

Consider `CCNc1ccn(-c2ccc(F)cc2)c(=O)c1C(=O)Nc1cc(F)c(Oc2ccnc(-c3cnn(C)c3)c2)cc1F` [Example 5, N-(2,5-difluoro-4-((2-(1-methyl-1H-pyrazol-4-yl)pyridin-4-yl)oxy)phenyl)-4-(ethylamino)-1-(4-fluorophenyl)-2-oxo-1,2-dihydropyridine-3-carboxamide], for which the values for the IC50 (at FMS kinase; with EBC-1 cells; in assay [1]) were 100 to 1000 nM, 100 to 1000 nM and no more than 100 nM, respectively.
As for `Cn1cc(-c2cc(Oc3cc(F)c(NC(=O)c4cccn(-c5ccc(F)cc5)c4=O)cc3F)ccn2)cn1` [Example 1, N-(2,5-difluoro-4-((2-(1-methyl-1H-pyrazol-4-yl)pyridin-4-yl)oxy)phenyl)-1-(4-fluorophenyl)-2-oxo-1,2-dihydropyridine-3-carboxamide], the IC50 (on FMS kinase; in assay [2]; with EBC-1 cells; in assay [1]) was no more than 100 nM in each case.
With `O=C(Nc1cc(F)c(Oc2ccnc(-c3cnn(CCO)c3)c2)cc1F)c1cccn(-c2ccc(F)cc2)c1=O` [Example 3, N-(2,5-difluoro-4-((2-(1-(2-hydroxyethyl)-1H-pyrazol-4-yl)pyridin-4-yl)oxy)phenyl)-1-(4-fluorophenyl)-2-oxo-1,2-dihydropyridine-3-carboxamide hydrochloride], the IC50 (at FMS kinase; in assay [2]; in assay [1]) was no more than 100 nM each time.
With `CCOc1ccn(-c2ccc(F)cc2)c(=O)c1C(=O)Nc1cc(F)c(Oc2ccnc(-c3cnn(C)c3)c2)cc1F` [Example 2, N-(2,5-difluoro-4-(2-(1-methyl-1H-pyrazol-4-yl)pyridin-4-yloxy)phenyl)-4-ethoxy-1-(4-fluorophenyl)-2-oxo-1,2-dihydropyridine-3-carboxamide], the IC50 on FMS kinase was 100 to 1000 nM; in assay [2], no more than 100 nM; with EBC-1 cells, no more than 100 nM; in assay [1], no more than 100 nM.

(Values after patent US9012635B2, “Pyridone amides and analogs exhibiting anti-cancer and anti-proliferative activities” (Deciphera Pharmaceuticals, LLC, priority 2013, dated 2015).)
